Assay results: EP4577640B1, “COMPOSITION COMPRISING AVENANTHRAMIDE C FOR INDUCING DIFFERENTIATION OF MESENCHYMAL STEM CELLS INTO CHONDROCYTES AND METHOD OF USING THE SAME” (Medeze Treasury Ptd. Ltd, priority 2023, dated 2025)

Experiments:
[1] = test system: Adipose-derived Mesenchymal Stem Cells (MSCs); experiment: RT-PCR mRNA expression analysis of chondrocyte markers relative to GAPDH; assay type: cell-based, human; details: Avn C treatment alone
Procedure: (§1) In Vitro Chondrogenic Differentiation: In Vitro, chondrogenic differentiation using monolayer culture was performed. P4 MSCs were seeded in Gelatin-coated 24 well plates at 6000 cells/cm2. MSCs were expanded for 3 days before switching to the following Chondrocyte differentiation media (CDM) for 21 days (FIG. 1A).
Standard chondrocyte differentiation medium (STD) consists of DMEM Low Glucose (DMEM LG; Gibco #31600083), supplemented with 0.5 µg/ml hydrocortisone (Sigma-Aldrich #H0888), 1% Fetal bovine serum (FBS; Biowest #S181B), 1 X Insulin-Transferrin-Selenium-X (ITS-X; Gibo #51500056) or ITS+1 Liquid Media Supplement (Sigma-Aldrich #I2521), 10ng/ml recombinant human TGF-beta 3 (R&D Systems #8420-B3-025), […] L-ascorbate-2-phosphate (Sigma-Aldrich #49752), 1% Penicillin-Streptomycin (pen-strep; Gibco #15140122) and 500ng/ml Amphotericin B (Amp B; Gibco #15290026). Standard CDM (STD) will be used as a control (FIG. 1A). […]
It is imperative to investigate the impact of Avn C on transcriptionally regulated chondrocyte properties, both when used individually and in conjunction with chondroitin sulfate at an optimal dosage of 500ug/mL (5X CS). To assess this, RT-PCR mRNA expression analysis is employed, which offers precise quantitative data on relative mRNA expressions. […]

[2] = test system: Adipose-derived Mesenchymal Stem Cells (MSCs); experiment: Immunofluorescence analysis of chondrocyte marker proteins on day 21 of in vitro chondrogenic differentiation (monolayer culture); assay type: cell-based, human
Procedure: as §1
Standard chondrocyte differentiation medium (STD) consists of DMEM Low Glucose (DMEM LG; Gibco #31600083), supplemented with 0.5 µg/ml hydrocortisone (Sigma-Aldrich #H0888), 1% Fetal bovine serum (FBS; Biowest #S181B), 1 X Insulin-Transferrin-Selenium-X (ITS-X; Gibo #51500056) or ITS+1 Liquid Media Supplement (Sigma-Aldrich #I2521), 10ng/ml recombinant human TGF-beta 3 (R&D Systems #8420-B3-025), […] L-ascorbate-2-phosphate (Sigma-Aldrich #49752), 1% Penicillin-Streptomycin (pen-strep; Gibco #15140122) and 500ng/ml Amphotericin B (Amp B; Gibco #15290026). Standard CDM (STD) will be used as a control (FIG. 1A).
Standard chondrocyte differentiation medium (STD) or CDM1 is then supplemented with 3 different treatment groups: 100 nM Avenanthramide C (Avn C; Sigma-Aldrich #36465) in CDM2, 500 ug/mL Chondroitin Sulfate (5 x CS; Sigma-Aldrich #C4384) in CDM3, and combination of 100 nM Avenanthramide C and 500 ug/mL Chondroitin Sulfate in CDM4 (FIG. 1A). […]

[3] = test system: mouse articular chondrocytes; details: cited from earlier work

Compound: O=C(/C=C/c1ccc(O)c(O)c1)Nc1ccc(O)cc1C(=O)O [Avn C, Avenanthramide C]
- COL2A1 expression, transcriptional versus protein level [1]: influences COL2A1 at protein levels (FIGS. 2 and 3) rather than at the transcriptional level
- expression of the COL2A1 protein (immunofluorescence signals) ([2]; 21-day treatment, CDM2 (STD + 100 nM Avn C) compared to CDM1 (STD)): significantly increasing the expression of the COL2A1 protein
- optimal concentration of Avn C for enhancing Collagen 2A1 protein signals ([2]; 21 days in STD with 0 nM, 10 nM, 100 nM, 1 uM, 10 uM, 50 uM Avn C, MSCs from a different individual): around 100 nM
- expression of catabolic factors MMP-3, -12, and -13 ([3]; induced by IL-1β in mouse articular chondrocytes): effectively suppressed the expression of catabolic factors
- IL-1β-mediated reduction of mature factors Collagen 2 (COL2A1) and SOX9 ([3]; mouse articular chondrocytes): did not impact the IL-1β-mediated reduction of mature factors
